Data published in patent US20060228301A1, “Methods and compositions for determining targeted drug sensitivity and resistance in a cancer subject” (priority 2005, published 2006).

Assays:
[1] = system: rat neuroblastoma (C6) cells; assay: ratio of [1-13C1]-D-ribose to [1,2-13C2]-D-ribose (m1/m2) in cultured cells contacted with [1,2-13C2]-D-glucose; type: cell-based; settings: untreated ratio 2.35
Source text: FIG. 6 depicts the results of in culture studies comparing the ratio of [1-^13C1]-D-ribose to [1,2-^13C2]-D-ribose in rat neuroblastoma (C6) cells which are sensitive to imatinib treatment. The increased ratio of m1/m2 ^13C in ribose indicates sensitivity to Gleevec, which is further increased by Hydroxyurea treatment, which is a well known chemotherapeutic agent for the treatment of various human cancers. The set of vertical bars on the left are observed values of m1 and the set of vertical bars on the right are observed values of m2. The calculated ratios of m1/m2 are provided above the horizontal lines.
(§1) When the ratio of [1-^13C1]-D-ribose to [1,2-^13C2]-D-ribose is less than 1 (e.g., 0.5) the patient is at risk of having a reduced response to treatment with a cancer therapeutic such as imatinib. The increased risk of developing a reduced response to imatinib includes any increased risk. In embodiments of the invention, the increased risk is about a 10% decrease in the ratio described above indicating the risk of developing imatinib resistance. In other embodiments, the increased risk is indicated by about a 10%, 15%, 20%, 25%, 50%, 75%, 85%, 90%, 95%, 98%, 99%, or 99.9% decrease in the ratio of [1-^13C1]-D-ribose to [1,2-^13C2]-D-ribose. […]

[2] = system: cultured myeloid (K-562) cells from patients with chronic myeloid leukemia; assay: ratio of [1-13C1]-D-ribose to [1,2-13C2]-D-ribose (m1/m2) in cultured CML myeloid cells exposed to Gleevec, ribose mass spectral analysis; type: cell-based, human; settings: myeloid cells from two patients resistant to Gleevec, increasing concentrations of Gleevec; cut off 0.65 for resistance
Source text: FIG. 5 depicts the results of studies comparing the ratio of [1-^13C1]-D-ribose to [1,2-^13C2]-D-ribose in cultured myeloid cells from patients with chronic myeloid leukemia using increasing concentrations of Gleevec (“x” axis). The set of vertical bars on the left are observed values of m1 and the set of vertical bars on the right are observed values of m2. The calculated ratios of m1/m2 are provided above the horizontal lines. In this experiment, a cut off point of 0.65 to detect resistance was used to identify Gleevec resistance. Cells from two patients resistant to Gleevec have m1/m2 ratios below 0.65, as indicated by an asterisk.
as §1

[3] = system: K562r cells; settings: high doses; cited from earlier work
[4] = system: LAMA84r cells; settings: high doses; cited from earlier work

Row | Compound | ratio of [1-13C1]-D-ribose to [1,2-13C2]-D-ribose (m1/m2) ([1]; 3.0 μM Gleevec) | m1/m2 ratio [2] | response to Gleevec treatment [3] | response to Gleevec treatment [4] | ratio of [1-13C1]-D-ribose to [1,2-13C2]-D-ribose (m1/m2) ([1]; 100 μM hydroxyurea)
1 | Cc1ccc(NC(=O)c2ccc(CN3CCN(C)CC3)cc2)cc1Nc1nccc(-c2cccnc2)n1 [Gleevec, imatinib] | 2.97 | below 0.65 | do not respond well even to high doses | do not respond well even to high doses | 
2 | NC(=O)NO [hydroxyurea] |  |  |  |  | 3.59
